Results on 32 compounds are retold here after patent US6608085B1, “4-quinolinemethanol derivatives as purine receptor antagonists (II)” (Vernalis Research Limited, priority 1998, dated 2003).

pKi: −log10 of the molar value. Where a name gives a salt, the structure may show the parent alone.

human adenosine A2A receptors, sequence (P29274 whole entry): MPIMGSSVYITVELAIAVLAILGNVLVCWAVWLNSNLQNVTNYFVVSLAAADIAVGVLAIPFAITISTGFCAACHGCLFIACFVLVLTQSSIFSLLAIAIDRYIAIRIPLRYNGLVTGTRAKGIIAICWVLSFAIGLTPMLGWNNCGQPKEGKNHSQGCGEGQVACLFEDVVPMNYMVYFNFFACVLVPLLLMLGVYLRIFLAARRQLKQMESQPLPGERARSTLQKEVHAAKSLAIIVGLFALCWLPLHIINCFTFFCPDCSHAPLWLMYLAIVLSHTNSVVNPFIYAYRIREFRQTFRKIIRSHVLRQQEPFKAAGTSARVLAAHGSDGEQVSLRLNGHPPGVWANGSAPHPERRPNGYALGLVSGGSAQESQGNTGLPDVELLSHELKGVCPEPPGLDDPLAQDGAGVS

Tested on in one data set: not given
Test: not given
Details: not given
One may read the melting point as the temperature, or range, at which the solid turns liquid. `COC(CNCc1ccccc1)c1cc(C(F)(F)F)nc2c(C(F)(F)F)cccc12` (stereo not drawn) (as salt: hydrochloride) [Example 30, N-Benzyl-β-methoxy-2,8-bis(trifuoromethyl)-4-quinolineethanamine Hydrochloride] displayed a melting point of 232 to 233 °C.

For `O[C@H](c1cc(C(F)(F)F)nc2c(C(F)(F)F)cccc12)[C@@H]1CCCN1` (as salt: hydrochloride) [Example 42, (11R, 2′S)-α-(2-pyrrolidinyl)-2,8-bis(trifuoromethyl)-4-quinolinemethanol Hydrochloride], the melting point is 230 °C (dec.). In the case of `O[C@@H](c1cc(C(F)(F)F)nc2c(C(F)(F)F)cccc12)[C@@H]1CCCN1` (as salt: hydrochloride) [Example 45, (11S, 2′S)-α-(2-Pyrrolidinyl)-2,8-bis(trifluoromethyl)-4-quinolinemethanol Hydrochloride], the melting point is 246 °C (dec.). Same read-out and setting: to `Cc1cccc2c([C@@H](O)[C@@H]3CCCCN3)cc(O)nc12` (relative stereo) belongs 225 °C (dec.); to `Nc1cc([C@@H](O)[C@@H]2CCCCN2)c2ccccc2n1` (relative stereo) (as salt: salt), 225 °C (dec.); to `OC(CN1CCOCC1)c1cc(C(F)(F)F)nc2c(C(F)(F)F)cccc12` (stereo not drawn) [Example 18, α-Morpholinomethyl-2,8-bis(trifluoromethyl)-4-quinolinemethanol], 129 to 130 °C. Still for that read-out and setting: to `OC(CN1CCCCC1)c1cc(C(F)(F)F)nc2c(C(F)(F)F)cccc12` (stereo not drawn) [Example 20, α-Piperidinomethyl-2,8-bis(trifluoromethyl)-4-quinolinemethanol] belongs 129.5 °C; to `OC1(c2cc(C(F)(F)F)nc3c(C(F)(F)F)cccc23)CNC1` [Example 31, 3-(2,8-Bis(Trifluoromethyl)-4-quinolinyl)-3-azetidinol], 201 °C (dec.).

The next data set concerns the target human adenosine A2A receptors (Homo sapiens, UniProt P29274). Briefly: Binding affinities at hA2A receptors, displacement of [3H]-CGS 21680. The note with it: displacement of radioligand [3H]-CGS 21680, in vitro. For orientation: Loss of bound radioactivity is the signal in a displacement assay; it reports binding, not function.
As usually defined, the pKi is −log10 of the Ki, conventionally taken in molar units. Low readings indicate a large Ki, high ones a small Ki. `CC(C)C[C@H](N)C(O)c1cc(C(F)(F)F)nc2c(C(F)(F)F)cccc12` (mixture of isomers) [Example 34, α-(-Amino-3-methylbutyl)-2,8-bis(trifluoromethyl)-4-quinolinemethanol] showed a pKi of 5.92. Same read-out and setting: to `O[C@@H](c1cc(C(F)(F)F)nc2ccccc12)[C@H]1CCCCN1` (racemic) [Example 39, (11S*, 2′R*)-α-(2-Piperidinyl)-2-trifluoromethyl-4-quinolinemethanol (Racemic)] belongs 6.39; to `COc1cc([C@@H](O)[C@@H]2CCCCN2)c2cccc(C)c2n1` (racemic) [Example 48, (11R*, 2′S*)-2-Methoxy-8-methyl-α-(2-piperidinyl)-4-quinolinemethanol (Racemic)], 5.96.

In the case of `CC(=O)N1CCCC[C@H]1[C@H](O)c1cc(C(F)(F)F)nc2c(C(F)(F)F)cccc12` [Example 5, (11R, 2′S)-α-(1-Acetyl-2-piperidinyl)-2,8-bis(trifluoromethyl)-4-quinolinemethanol], the pKi is 5.76. `CN1CCCC[C@H]1[C@H](O)c1cc(C(F)(F)F)nc2c(C(F)(F)F)cccc12` [Example 7, (11R, 2′S)-α-(1-Methyl-2-piperidinyl)-2,8-bis(trifluoromethyl)-4-quinolinemethanol] showed a pKi of 7.35. On the same count and under the same terms, to `CO[C@H](c1cc(C(F)(F)F)nc2c(C(F)(F)F)cccc12)[C@@H]1CCCCN1C` [Example 8, (11R, 2′S)-4-(1-Methoxy-1-(1-methyl-2-piperidinyl)methyl)-2,8-bis(trifluoromethyl)quinoline] belongs 6.38; to `O[C@H](c1cc(C(F)(F)F)nc2c(C(F)(F)F)cccc12)[C@@H]1CCCCN1Cc1ccccc1` [Example 9, (11R, 2′S)-α-(1-Benzyl-2-piperidinyl)-2,8-bis(trifluoromethyl)-4-quinolinemethanol], 6.74; to `FC(F)(F)c1cc([C@H]2OCN3CCCC[C@@H]23)c2cccc(C(F)(F)F)c2n1` [Example 11, (1R, 8aS)-1,5,6,7,8,8a-Hexahydro-1-(2,8-bis(trifluoromethyl)-4-quinolinyl)-3H-oxazolo[3,4-a]pyridine], 7.20. On the same count and under the same terms, to `FC(F)(F)c1cc([C@H]2OCN3CCCC[C@H]23)c2cccc(C(F)(F)F)c2n1` [Example 13, (1R, 8aR)-1,5,6,7,8,8a-Hexahydro-1-(2,8-bis(trifluoromethyl)-4-quinolinyl)-3H-oxazolo[3,4-a]pyridine] belongs 6.72; to `O=C1CO[C@H](c2cc(C(F)(F)F)nc3c(C(F)(F)F)cccc23)[C@@H]2CCCCN12` [Example 14, (1R, 9aS)-1,3,4,6,7,8,9,9a-Octahydro-1-(2,8-bis(trifluoromethyl)-4-quinolinyl)-pyrido[2,1-c][1,4]oxazine-4-one], 5.75. Same read-out and setting: the result for `FC(F)(F)c1cc([C@H]2OCCN3CCCC[C@@H]23)c2cccc(C(F)(F)F)c2n1` [Example 15, (1R, 9aS)-1,3,4,6,7,8,9,9a-Octahydrol-(2,8-bis(trifluoromethyl)-4-quinolinyl)-pyrido[2,1-c][1,4]oxazine] reads 5.93; that for `CNCC(O)c1cc(C(F)(F)F)nc2c(C(F)(F)F)cccc12` (stereo not drawn) [Example 22, α-Methylaminomethyl-2,8-bis(trifluoromethyl)-4-quinolinemethanol], 5.82. On to `OC(CNc1ccccc1)c1cc(C(F)(F)F)nc2c(C(F)(F)F)cccc12` (stereo not drawn) [Example 23, α-Phenylaminomethyl-2,8-bis(trifluoromethyl)-4-quinolinemethanol], for which the pKi was 5.56. On the same count and under the same terms, the result for `OC(CNCc1ccccc1)c1cc(C(F)(F)F)nc2c(C(F)(F)F)cccc12` (stereo not drawn) [Example 24, α-Benzylaminomethyl-2,8-bis(trifluoromethyl)-4-quinolinemethanol] reads 5.61. `CC(C)CNCC(O)c1cc(C(F)(F)F)nc2c(C(F)(F)F)cccc12` (stereo not drawn) [Example 25, α-Isobutylaminomethyl-2,8-bis(trifluoromethyl)-4-quinolinemethanol] gave a negative-log Ki (pKi) of 5.90.

With `OC(CNC1CCC1)c1cc(C(F)(F)F)nc2c(C(F)(F)F)cccc12` (stereo not drawn) [Example 26, α-Cyclobutylaminomethyl-2,8-bis(trifluoromethyl)-4-quinolinemethanol], the pKi was 5.55. The same measure, in the same setting: to `CO[C@H](c1cc(C(F)(F)F)nc2c(C(F)(F)F)cccc12)[C@@H]1CCCCN1` [Example 32, (1′R, 2S)-2-(α-Methoxy-2,8-bis(trifluoromethyl)-4-quinolinemethyl)piperidine Hydrochloride] belongs 6.65; to `O[C@H](c1cc(C(F)(F)F)nc2c(C(F)(F)F)cccc12)[C@@H]1CCCCN1CCc1ccccc1` [Example 38, (11S, 2′R)-α-(1-Phenethyl-2-piperidinyl)-2,8-bis(trifluoromethyl)-4-quinolinemethanol], 6.04; to `CC[C@H](C)[C@H](N)[C@@H](O)c1cc(C(F)(F)F)nc2c(C(F)(F)F)cccc12` [Example 40, (11S, 1′S, 2′S)-α-(1-Amino-2-methyl-1-butyl)-2,8-bis(trifluoromethyl)-4-quinolinemethanol Hydrochloride], 6.22. Still for that read-out and setting: the result for `O[C@H](c1cc(C(F)(F)F)nc2c(C(F)(F)F)cccc12)[C@@H]1CCCN1` [Example 42, (11R, 2′S)-α-(2-pyrrolidinyl)-2,8-bis(trifuoromethyl)-4-quinolinemethanol Hydrochloride] reads 6.34; that for `CC(C)(C)OC(=O)N1CCC[C@H]1[C@H](O)c1cc(C(F)(F)F)nc2c(C(F)(F)F)cccc12` [Example 43, (11R, 2′S)-α-(1-tert-Butoxycarbonyl-2-pyrrolidinyl)-2,8-bis(trifluoromethyl)-4-quinolinemethanol], 5.57.

As for `O[C@@H](c1cc(C(F)(F)F)nc2c(C(F)(F)F)cccc12)[C@@H]1CCCN1` [Example 45, (11S, 2′S)-α-(2-Pyrrolidinyl)-2,8-bis(trifluoromethyl)-4-quinolinemethanol Hydrochloride], the pKi was 5.69.

Another data set relates to Parkinsonian patients.
Test: not given
The note with it: 15 Parkinsonian patients, up to 12 weeks, 150 mg/day; cited from earlier work.
`Cn1c(=O)c2[nH]cnc2n(C)c1=O` [Theophylline, 1,3-dimethylxanthine]: the “mean objective disability scores” value is reported as “significant improvements”.

Still in this data set, the particulars now being: of 15 Parkinsonian patients, up to 12 weeks, 150 mg/day; cited from earlier work.
In the case of `Cn1c(=O)c2[nH]cnc2n(C)c1=O` [Theophylline, 1,3-dimethylxanthine], the “patients reporting moderate or marked subjective improvement” value was 11.

Still in this data set, the particulars now being: slow release oral preparation 150 mg/day, after one week; cited from earlier work.
As for `Cn1c(=O)c2[nH]cnc2n(C)c1=O` [Theophylline, 1,3-dimethylxanthine], the serum theophylline levels is 4.44 mg/L.

A further data set relates to cataleptic responses.
Test: not given
The note with it: in vivo; cited from earlier work.
Regarding `CCCn1c(=O)c2c(nc(/C=C/c3ccc(OC)c(OC)c3)n2C)n(CCC)c1=O` [KF 17837, (E)-8-(3,4-dimethoxystyryl)-1,3-dipropyl-7-methylxanthine], the “anticataleptic effects of a subthreshold dose of L-DOPA plus benserazide” value is recorded as “potentiated”; the “catalepsy induced by haloperidol and reserpine” value was “reduced”.

The same data set, now with this note: oral administration; cited from earlier work.
As to `CCCn1c(=O)c2c(nc(/C=C/c3ccc(OC)c(OC)c3)n2C)n(CCC)c1=O` [KF 17837, (E)-8-(3,4-dimethoxystyryl)-1,3-dipropyl-7-methylxanthine], the “cataleptic responses induced by intracerebroventricular CGS 21680” value is “significantly ameliorated”.
